Experiments:
DGKζ = biological target: T1, DGKζ (Homo sapiens, UniProt Q13574); assay: In vitro DGKζ inhibition assay (ADP-Glo); assay type: biochemical; conditions: His-tagged human recombinant DGKζ 0.4 nM, 30 μM ATP, 20 μM DLG, 90 minute incubation
T1 construct: His; purchased Signal Chem D30-10H
Method: (§1) The DGKα and DGKζ biochemical reactions were performed using His-tagged human recombinant enzymes (Signal Chem, DGKα, #D21-10BH; DGKζ, #D30-10H)) and DLG (Dilauroyl-sn-glycerol) lipid substrate (Signal Chem, #D430-59). ADP-Glo assay was performed using ADP-Glom kinase Assay kit (Promega, #V9104). The reactions were carried out in assay buffer containing 40 mM Tris, pH 7.5, 0.1% CHAPS, 0.1% Prionex, 40 mM NaCl, 5 mM MgCl2, 1 mM CaCl2), and 1 mM DTT. DGKα reactions contained 0.1 nM DGKα, 50 μM ATP, and 20 μM DLG. And DGKζ reactions contained 0.4 nM DGKζ, 30 μM ATP, and 20 μM DLG.
(§2) For compound inhibition studies, 40 nL test compound in DMSO was added to wells of white polystyrene plates in 384-well (Greiner, #784075) or 1536-well format (Greiner, #782075). Compounds were added with top concentration of 2 mM with 11 point, 3-fold dilution series. Enzyme solution (contains 2×DGK enzyme concentration in 1× assay buffer) was added to the plate in 2 μL/well volume, followed by 2 μL/well of substrate solution (contains 2× concentration of ATP and DLG substrate in 1× assay buffer). Plates were then centrifuged for 1 min at 1200 RPM and sealed or lidded. For 4 μL reaction volume, test compounds were therefore diluted 100× to final top concentration of 20 μM. After 90 minute incubation, reactions were quenched by addition of 2 μL/well Promega ADP-Glo Reagent, followed by centrifugation and lidding. After 60 min incubation, 2 μL/well Promega Kinase Detection Reagent was added, plates centrifuged, and incubated for 30 min. Plates were then read using Luminescence method on BMG PHERAstar FSX plate reader. Percent inhibition was calculated and IC50s were determined using 4-parameter fit in Genedata Screener. Labcyte Echo acoustic dispenser was used for compound addition, and Formulatrix Tempest liquid handler was used for all reagent dispenses.

DGKα = biological target: T2, DGKα (Homo sapiens, UniProt P23743); assay: In vitro DGKα inhibition assay (ADP-Glo); assay type: biochemical; conditions: His-tagged human recombinant DGKα 0.1 nM, 50 μM ATP, 20 μM DLG, 90 minute incubation
T2 construct: His; purchased Signal Chem D21-10BH
Method: as §1, §2

T1 sequence (Q13574 whole entry): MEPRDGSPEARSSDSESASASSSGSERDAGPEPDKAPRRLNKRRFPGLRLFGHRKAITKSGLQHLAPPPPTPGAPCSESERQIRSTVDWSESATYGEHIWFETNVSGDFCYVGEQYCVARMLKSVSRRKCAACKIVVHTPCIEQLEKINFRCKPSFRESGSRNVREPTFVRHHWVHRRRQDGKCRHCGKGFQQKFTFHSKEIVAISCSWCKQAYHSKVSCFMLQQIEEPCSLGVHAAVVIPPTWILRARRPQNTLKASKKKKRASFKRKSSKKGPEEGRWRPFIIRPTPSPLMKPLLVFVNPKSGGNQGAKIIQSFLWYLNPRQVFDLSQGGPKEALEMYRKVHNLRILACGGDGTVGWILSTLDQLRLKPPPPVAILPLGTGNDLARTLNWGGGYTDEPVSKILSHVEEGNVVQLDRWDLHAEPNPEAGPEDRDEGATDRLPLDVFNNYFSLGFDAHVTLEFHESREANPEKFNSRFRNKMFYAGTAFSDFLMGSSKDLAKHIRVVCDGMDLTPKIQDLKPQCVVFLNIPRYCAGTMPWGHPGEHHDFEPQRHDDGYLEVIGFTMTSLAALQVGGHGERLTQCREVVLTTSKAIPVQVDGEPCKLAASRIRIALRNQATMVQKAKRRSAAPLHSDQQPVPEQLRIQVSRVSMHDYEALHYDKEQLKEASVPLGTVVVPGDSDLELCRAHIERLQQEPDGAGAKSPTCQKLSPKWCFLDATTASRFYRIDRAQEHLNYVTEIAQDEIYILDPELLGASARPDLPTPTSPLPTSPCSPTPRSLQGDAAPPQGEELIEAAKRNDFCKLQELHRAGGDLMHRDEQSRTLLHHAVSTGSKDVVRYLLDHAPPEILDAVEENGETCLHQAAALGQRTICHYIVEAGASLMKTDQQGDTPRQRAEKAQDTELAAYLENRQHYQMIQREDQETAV
T2 sequence (P23743 whole entry): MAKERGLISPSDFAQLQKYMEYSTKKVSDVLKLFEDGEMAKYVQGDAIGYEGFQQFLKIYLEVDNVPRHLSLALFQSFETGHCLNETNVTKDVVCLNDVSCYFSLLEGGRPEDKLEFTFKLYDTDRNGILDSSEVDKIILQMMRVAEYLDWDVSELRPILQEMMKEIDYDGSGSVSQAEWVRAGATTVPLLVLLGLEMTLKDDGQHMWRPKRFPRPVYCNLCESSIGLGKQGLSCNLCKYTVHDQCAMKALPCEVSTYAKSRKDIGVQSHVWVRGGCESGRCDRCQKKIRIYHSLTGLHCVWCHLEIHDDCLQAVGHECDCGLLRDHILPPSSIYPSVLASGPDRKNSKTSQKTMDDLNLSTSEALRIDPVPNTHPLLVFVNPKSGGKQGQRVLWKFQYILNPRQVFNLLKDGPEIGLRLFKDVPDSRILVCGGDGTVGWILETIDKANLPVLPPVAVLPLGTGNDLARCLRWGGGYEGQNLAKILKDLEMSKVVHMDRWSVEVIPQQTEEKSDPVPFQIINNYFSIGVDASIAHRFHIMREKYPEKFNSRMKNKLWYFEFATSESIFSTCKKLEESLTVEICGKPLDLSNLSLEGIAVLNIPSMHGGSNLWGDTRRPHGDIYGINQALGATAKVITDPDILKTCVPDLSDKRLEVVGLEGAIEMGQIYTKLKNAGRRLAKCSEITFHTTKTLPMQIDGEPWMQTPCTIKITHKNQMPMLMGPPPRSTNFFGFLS

IC50 (DGKζ) [nM]	IC50 (DGKα) [nM]	Compound
200 to 2000	≤ 40	C[C@@H]1CN2c3c(c(=O)n(C)c4ccc(C#N)nc34)N(C)C(=O)[C@H]2CN1C(c1ccc(F)cc1)c1ccc(F)cc1 [Example 1, (8aR,11R)-10-(Bis(4-fluorophenyl)methyl)-5,7,11-trimethyl-6,8-dioxo-5,7,8,8a,9,10,11,12-octahydro-6H-pyrazino[1′,2′:4,5]pyrazino[2,3-c][1,5]naphthyridine-2-carbonitrile]
200 to 2000	40 to 200	COCCN1C(=O)[C@H]2CN(C(c3ccc(F)cc3)c3ccc(F)cc3)[C@H](C)CN2c2c1c(=O)n(C)c1ccc(C#N)nc21 [Example 2, (8aR,11R)-10-(Bis(4-fluorophenyl)methyl)-7-(2-methoxyethyl)-5,11-dimethyl-6,8-dioxo-5,7,8,8a,9,10,11,12-octahydro-6H-pyrazino[1′,2′:4,5]pyrazino[2,3-c][1,5]naphthyridine-2-carbonitrile]
> 2000	≤ 40	Cc1ccc2c(n1)c1c(c(=O)n2C)N(C)C(=O)[C@H]2CN(C(c3ccc(F)cc3)c3ccc(F)cc3)[C@H](C)CN12 [Example 5, (8aR,11R)-10-(Bis(4-fluorophenyl)methyl)-2,5,7,11-tetramethyl-5,7,9,10,11,12-hexahydro-6H-pyrazino[1′,2′:4,5]pyrazino[2,3-c][1,5]naphthyridine-6,8(8aH)-dione]

The next lines start with the compound.

Compound	IC50 (DGKζ) [nM]	IC50 (DGKα) [nM]
C[C@@H]1CN2c3c(c(=O)n(C)c4ccccc34)N(C)C(=O)[C@H]2CN1C(c1ccc(F)cc1)c1ccc(F)cc1 [Example 3, (2R,4aR)-3-(Bis(4-fluorophenyl)methyl)-2,6,8-trimethyl-2,3,4,4a,6,8-hexahydro-1H-pyrazino[1′,2′:4,5]pyrazino[2,3-c]quinoline-5,7-dione]	> 2000	≤ 40
C[C@@H]1CN2c3c(c(=O)n(C)c4ccc(F)nc34)N(C)C(=O)[C@H]2CN1C(c1ccc(F)cc1)c1ccc(F)cc1 [Example 4, (8aR,11R)-10-(Bis(4-fluorophenyl)methyl)-2-fluoro-5,7,11-trimethyl-5,7,9,10,11,12-hexahydro-6H-pyrazino[1′,2′:4,5]pyrazino[2,3-c][1,5]naphthyridine-6,8(8aH)-dione]	200 to 2000	≤ 40
C[C@@H]1CN2c3c(c(=O)n(C)c4ccc(CC#N)nc34)N(C)C(=O)[C@H]2CN1C(c1ccc(F)cc1)c1ccc(F)cc1 [Example 6, 2-((8aR,11R)-10-(Bis(4-fluorophenyl)methyl)-5,7,11-trimethyl-6,8-dioxo-5,7,8,8a,9,10,11,12-octahydro-6H-pyrazino[1′,2′:4,5]pyrazino[2,3-c][1,5]naphthyridin-2-yl)acetonitrile]	≤ 40	≤ 40
COc1ccc2c(n1)c1c(c(=O)n2C)N(C)C(=O)[C@H]2CN(C(c3ccc(F)cc3)c3ccc(F)cc3)[C@H](C)CN12 [Example 7, (8aR,11R)-10-(Bis(4-fluorophenyl)methyl)-2-methoxy-5,7,11-trimethyl-5,7,9,10,11,12-hexahydro-6H-pyrazino[1′,2′:4,5]pyrazino[2,3-c][1,5]naphthyridine-6,8(8aH)-dione]	> 2000	≤ 40
C[C@@H]1CN2c3c(c(=O)n(C)c4ccc(-c5cnn(C)c5)nc34)N(C)C(=O)[C@H]2CN1C(c1ccc(F)cc1)c1ccc(F)cc1 [Example 8, (8aR,11R)-10-(Bis(4-fluorophenyl)methyl)-5,7,11-trimethyl-2-(1-methyl-1H-pyrazol-4-yl)-5,7,9,10,11,12-hexahydro-6H-pyrazino[1′,2′:4,5]pyrazino[2,3-c][1,5]naphthyridine-6,8(8aH)-dione]	> 2000	≤ 40
C[C@@H]1CN2c3c(c(=O)n(C)c4ccc(=O)[nH]c34)N(C)C(=O)[C@H]2CN1C(c1ccc(F)cc1)c1ccc(F)cc1 [Example 9, (8aR,11R)-10-(Bis(4-fluorophenyl)methyl)-5,7,11-trimethyl-5,7,9,10,11,12-hexahydro-1H-pyrazino[1′,2′:4,5]pyrazino[2,3-c][1,5]naphthyridine-2,6,8(8aH)-trione]	> 2000	≤ 40
